Laboratory results: ChEMBL document CHEMBL5241088, “Selective SIRT2 inhibitors as promising anticancer therapeutics: An update from 2016 to 2020” (Eur J Med Chem, 2021)

Tests used:
[1] = target: T1, NAD-dependent protein deacetylase sirtuin-2 (Homo sapiens, UniProt Q8IXJ6); assay: Inhibition of human SIRT2 using sirtuin substrate incubated for 30 mins by enzymatic fluorescence assay
T1 sequence (Q8IXJ6 whole entry): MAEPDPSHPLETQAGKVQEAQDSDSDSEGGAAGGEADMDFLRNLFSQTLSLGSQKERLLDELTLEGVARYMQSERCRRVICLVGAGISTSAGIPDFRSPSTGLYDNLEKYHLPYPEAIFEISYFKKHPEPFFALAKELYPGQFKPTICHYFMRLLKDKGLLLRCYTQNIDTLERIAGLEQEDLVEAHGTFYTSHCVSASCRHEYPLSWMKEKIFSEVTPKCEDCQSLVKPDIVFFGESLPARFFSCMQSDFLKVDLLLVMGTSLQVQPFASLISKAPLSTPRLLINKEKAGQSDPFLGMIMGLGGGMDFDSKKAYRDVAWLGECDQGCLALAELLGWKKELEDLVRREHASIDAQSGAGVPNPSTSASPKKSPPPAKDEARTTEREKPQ

[2] = target: T2, NAD-dependent protein deacetylase sirtuin-2 (Homo sapiens) (UniProt Q8IXJ6); assay: Inhibition of human SIRT2 (34 to 356 amino acids) by surface plasmon resonance assay relative to control; conditions: concentration not given here
T2 sequence (whole entry): T1 sequence (Q8IXJ6 whole entry)

[3] = Cytotoxicity against human DLBCL cells assessed as cell viability after 72 hrs by CellTiter-Glo assay; assay type: functional, cell-based
Raji = assay: Cytotoxicity against human Raji cells assessed as cell viability after 72 hrs by CellTiter-Glo assay; assay type: functional, cell-based
[4] = target: T1, NAD-dependent protein deacetylase sirtuin-2; assay: Inhibition of SIRT2 (unknown origin)
MDA-MB-231 [5] = assay: Antiproliferative activity against human MDA-MB-231 cells incubated for 72 hrs by MTT assay; assay type: functional
MCF7 [6] = assay: Antiproliferative activity against human MCF7 cells incubated for 72 hrs by MTT assay; assay type: functional
[7] = target: T1, NAD-dependent protein deacetylase sirtuin-2; assay: Inhibition of human SIRT2 demyristoylation activity using ETDKac as substrate
HEK-293T = assay: Antiproliferative activity against human HEK293T cells; assay type: functional, cell-based
MCF7 [8] = assay: Antiproliferative activity against human MCF7 cells; assay type: functional, cell-based
[9] = target: T1, NAD-dependent protein deacetylase sirtuin-2; assay: Inhibition of human SIRT2 deacetylase activity using QPKKac as substrate
[10] = target: T1, NAD-dependent protein deacetylase sirtuin-2; assay: Inhibition of recombinant SIRT2 (unknown origin) using (FAM)-labeled fluorescent peptide-RHKK(Ac)LM by electrophoretic mobility shift assay
[11] = target: T1, NAD-dependent protein deacetylase sirtuin-2; assay: Inhibition of human SIRT2 expressed in Escherichia coli BL21(DE3) using Ac-Arg-His-Lys-[Lys-(Ac)]-AMC substrate
[12] = target: T1, NAD-dependent protein deacetylase sirtuin-2; assay: Inhibition of human GST-fused SIRT2 expressed in Escherichia coli BL21(DE3)
MDA-MB-468 = assay: Cytotoxicity against human MDA-MB-468 cells assessed as cell viability measured after 3 days by Cell Titer Blue assay; assay type: functional, cell-based; conditions: MDA-MB-468, 72 h
MDA-MB-231 [13] = assay: Cytotoxicity against human MDA-MB-231 cells assessed as cell viability measured after 3 days by Cell Titer Blue assay; assay type: functional, cell-based; conditions: MDA-MB-231, 72 h
MCF7 [14] = assay: Cytotoxicity against human MCF7 cells assessed as cell viability measured after 3 days by Cell Titer Blue assay; assay type: functional, cell-based; conditions: MCF7, 72 h
[15] = target: T1, NAD-dependent protein deacetylase sirtuin-2; assay: Inhibition of human SIRT2 using Ac-peptide as substrate assessed as fluorescence intensity by microplate reader

Work on `COc1c(O)cc2oc3cc(O)c(CC=C(C)C)c(O)c3c(=O)c2c1CC=C(C)C` [MANGOSTIN] yielded an IC50 [1] of 9200 nM.

For `CCOC(=O)c1c(/C=N/OCc2cn(CC(=O)c3ccc(OC)cc3)nn2)c2ccccc2n1C`, the inhibition [2] was 73.1%.

With `CNC(=O)C(Cc1c(O)ccc2cc(Br)ccc12)C(=O)c1ccc(Br)cc1` (stereo not drawn) the IC50 [3] was 5700 nM and the IC50 (Raji) was 9100 nM.

Compound `C[C@H](NC(=O)[C@H](CCCCNC(=S)CNC(=O)c1ccccc1Nc1cccc(OCCc2ccccc2)c1)NC(=O)OCc1ccccc1)C(N)=O` has an IC50 [4] of 1560 nM, a GI50 (MDA-MB-231 [5]) of 8300 nM and a GI50 (MCF7 [6]) of 8300 nM.

With `CCCCCCCCCCCCCC(=S)NCCCC[C@H](NS(C)(=O)=O)C(=O)N[C@@H](C)C(=O)N[C@@H](CCCNC(=N)N)C(N)=O` the IC50 [7] was 90 nM, the IC50 (HEK-293T) was 10 nM and the IC50 (MCF7 [8]) was 50 nM.

For `CCCCCCCCCCCCCC(=S)NCCCC[C@H](NS(C)(=O)=O)C(=O)N[C@H](C)C(=O)N[C@@H](CCCNC(=N)N)C(N)=O`, the IC50 (HEK-293T) was 100 nM, the IC50 [9] was 70 nM and the IC50 (MCF7 [8]) was 500 nM.

In the case of `C=CCNC(=S)N/N=C/c1ccc(OC)c(Cn2cc([N+](=O)[O-])cn2)c1`, the IC50 [10] is reported as 180 nM.

For `COc1ccc2cc(S(=O)(=O)Cc3ccc(OC(C)=O)cc3)oc2c1`, the IC50 [11] was 3810 nM.

For `CC(C)=CCc1c(O)cc2oc3cc(O)c(O)c(CC=C(C)C)c3c(=O)c2c1O`, the IC50 [1] was 3800 nM.

`Cc1[nH]c2c(c1C(=O)N(C)Cc1cccc(-c3ccc(C(F)(F)F)cc3)c1)C(=O)CC(C)(C)C2` showed an IC50 [4] of 980 nM.

With `CCC(C)(C)c1ccc(OCC(O)CN2C[C@@H]3C[C@H](C2)c2cccc(=O)n2C3)c(C(C)(C)CC)c1` (stereo partly drawn) the IC50 [12] was 460 nM.

With `CCCCCCCCCCCCCC(=S)NCCCCC(NC(=O)OCc1ccccc1)C(=O)Nc1ccccc1` (stereo not drawn) the IC50 (MDA-MB-468) was 8600 nM, the IC50 (MDA-MB-231 [13]) was 34100 nM and the IC50 (MCF7 [14]) was 8400 nM.

Compound `COc1cc2oc3cc(O)c(OC)c(CC=C(C)C)c3c(=O)c2c(O)c1CC=C(C)C` has an IC50 [1] of 18900 nM.

Work on `O=C(CSc1nnc2c3ccccc3n(Cc3ccccc3)c2n1)Nc1cccc2ccccc12` yielded an IC50 [15] of 1300 nM.
